Test results reported in article PMC8591608, “DNDI-6148: A Novel Benzoxaborole Preclinical Candidate for the Treatment of Visceral Leishmaniasis” (Journal of Medicinal Chemistry, 2021).

Columns and labels:
[1] = system: L. donovani; experiment: Intramacrophage L. donovani assay; format: cell-based; conditions: Leishmania donovani
Method: (§1) L. infantum (MHOM/MA/67/ITMAP263) and L. donovani (MHOM/ET/67/L82) were maintained in the golden (Syrian) hamster (Mesocricetus auratus). Ex vivo amastigotes were collected from the spleen of an infected donor hamster using two centrifugation purification steps: 230g for 10 min, keeping the supernatant layer, and 4100g for 30 min, keeping the pellet. The spleen parasite burden was assessed using the Stauber technique.[25] For in vitro assays, the inoculum was prepared in RPMI-1640 medium, supplemented with 200 mM L-glutamine, 16.5 mM NaHCO3, and 5% inactivated fetal calf serum. For the in vivo model, an infection inoculum containing 2 × 10^7 amastigotes/100 μL was prepared in phosphate-buffered saline (PBS).
The assay was performed in sterile 96-well microtiter plates, each well containing 10 μL of the compound dilution and 190 μL of the PMM/amastigote inoculum (3 × 10^4 cells/4.5 × 10^5 parasites per well). Parasite multiplication was compared to untreated infected controls (100% growth) and uninfected controls (0% growth). After five-day incubation, total parasite burdens were microscopically assessed after staining the cells with a 10% Giemsa solution. The results were expressed as a percentage reduction in parasite burden compared to untreated control wells. EC50 values were determined using an extended dose range (2-fold compound dilutions, 8-point concentration curve). Miltefosine was used as the reference drug.[26] For selected compounds, this assay format was also run using the L. donovani inoculum.

[2] = Liver microsome stability, hamster; format: in vitro ADME; conditions: golden (Syrian), hamster liver microsomes, pH 7.4, Table 5, read-out: HamLM Clint
Method: Tests were performed by WuXi AppTec, China. Test compounds (at 1 μM) or positive controls (testosterone, propafenone, and diclofenac) were incubated at 37 °C with liver microsomes from Balb/c mouse, golden (Syrian) hamster, Sprague-Dawley rat, Beagle dog, or human in the presence of a NADPH regenerating system and phosphate buffer (100 mM, pH 7.4) at 0.4 or 0.8 mg/mL microsomal protein. The samples were removed at time intervals from 0 to 60, 90, or 120 min and immediately mixed with cold methanol supplemented or not with acid (3% formic acid) and centrifuged prior to analysis by LC-MS/MS using tolbutamide or propranolol as internal standards.

[3] = system: L. infantum; experiment: L. infantum hamster model of VL; format: in vivo; conditions: for reduction in parasite burden, bone marrow, 10 days / reduction in parasite burden, liver, 10 days / reduction in parasite burden, spleen, 10 days: 25 mg/kg BID p.o. for 10 days
Method: as §1
(§2) Female golden hamsters for the in vivo model of visceral leishmaniasis were purchased from Janvier, France (body weight 80–100 g). This study using laboratory rodents was carried out in strict accordance with all mandatory guidelines (EU directives, including the Revised Directive 2010/63/EU on the protection of Animals used for Scientific Purposes that came into force on 01/01/2013, and the declaration of Helsinki in its latest version) and was approved by the ethical committee of the University of Antwerp, Belgium (UA-ECD 2011-74). Female golden hamsters for the pharmacokinetic study were purchased from Vital River, Beijing, China. This study was conducted following institutional review and in accordance with institutional and national guidelines at WuXi AppTec (the Institutional Animal Care and Use Committee (IACUC)). Balb/c mice for the in vivo model of visceral leishmaniasis (LSHTM) were purchased from Charles River, U.K., and related studies were conducted under license PPL 70/8427 from the U.K. Home Office.
Female golden hamsters were randomly allocated to experimental groups of six animals each, based on body weight. At the start of the experiment (Day 0), each animal was infected with L. infantum or L. donovani inoculum, delivered by intracardial injection. Six hamsters were assigned to the vehicle-treated, infected control group. Six hamsters were assigned per group (1 group/compound) for the evaluation of compound and miltefosine. […] At Day 35 (10 days after the final oral dose), all animals were euthanized and autopsies were conducted. The study evaluated the following parameters. • 1. Adverse effects: all animals were observed daily for the occurrence/presence of adverse effects. • 2. Body weight: all animals were weighed twice per week to monitor general health. • 3. Parasite burden: amastigote burdens in each target organ (liver, spleen, and bone marrow) were determined at Day 35. The organs of individual animals were weighed (except for bone marrow). Impression smears were stained with Giemsa for microscopic examination of the total amastigote burden, defined as the mean number of amastigotes per cell multiplied by the number of cells counted (minimum 500 nuclei); the results were expressed as a percentage reduction in amastigote burden compared to vehicle-treated, infected control animals.

[4] = system: L. donovani; experiment: L. donovani hamster model of VL; format: in vivo
Method: as §1, §2
Female golden hamsters were randomly allocated to experimental groups of six animals each, based on body weight. At the start of the experiment (Day 0), each animal was infected with L. infantum or L. donovani inoculum, delivered by intracardial injection. Six hamsters were assigned to the vehicle-treated, infected control group. Six hamsters were assigned per group (1 group/compound) for the evaluation of compound and miltefosine. At Day 21 postinfection (21 dpi), all animals in each group were dosed orally for five (or ten) consecutive days (21–25 dpi): compound was dosed at 25–50 mg/kg b.i.d.; miltefosine was dosed at 40 mg/kg q.d. At Day 35 (10 days after the final oral dose), all animals were euthanized and autopsies were conducted. The study evaluated the following parameters. • 1. Adverse effects: all animals were observed daily for the occurrence/presence of adverse effects. • 2. Body weight: all animals were weighed twice per week to monitor general health. • 3. Parasite burden: amastigote burdens in each target organ (liver, spleen, and bone marrow) were determined at Day 35. The organs of individual animals were weighed (except for bone marrow). Impression smears were stained with Giemsa for microscopic examination of the total amastigote burden, defined as the mean number of amastigotes per cell multiplied by the number of cells counted (minimum 500 nuclei); the results were expressed as a percentage reduction in amastigote burden compared to vehicle-treated, infected control animals.

[5] = Plasma-protein binding, human; format: in vitro ADME; conditions: pH 7.4
Method: (§3) Tests were conducted by WuXi AppTec, Co., China, using the equilibrium dialysis method and a 96-well plate format. The test compound (at 2 μM, in triplicate) in solution in plasma (Balb/c mouse, golden (Syrian) hamster, Sprague-Dawley rat, Beagle dog or human) was dialyzed against 100 mM phosphate-buffered saline (pH 7.4) on a rotating plate incubated for 6 h at 37 °C. Following the precipitation of protein with acetonitrile or acetonitrile/methanol containing both 1% phosphoric acid, the amount of compound present in each compartment was quantified by LC-MS/MS.

[6] = Plasma-protein binding, rat; format: in vitro ADME; conditions: Sprague-Dawley, pH 7.4
Method: as §3

Row | Compound | reduction in parasite burden, bone marrow, 5 days ([3]; 25 mg/kg BID p.o. for 5 days) | reduction in parasite burden, liver, 5 days ([3]; 25 mg/kg BID p.o. for 5 days) | reduction in parasite burden, spleen, 5 days ([3]; 25 mg/kg BID p.o. for 5 days) | reduction in parasite burden, bone marrow, 10 days [3] | reduction in parasite burden, liver, 10 days [3] | reduction in parasite burden, spleen, 10 days [3] | reduction in parasite burden, bone marrow, 5 days ([3]; 50 mg/kg BID p.o. for 5 days) | reduction in parasite burden, liver, 5 days ([3]; 50 mg/kg BID p.o. for 5 days) | reduction in parasite burden, spleen, 5 days ([3]; 50 mg/kg BID p.o. for 5 days) | reduction in parasite burden, bone marrow, 5 days ([4]; 50 mg/kg BID for 5 days) | reduction in parasite burden, liver, 5 days ([4]; 50 mg/kg BID for 5 days) | reduction in parasite burden, spleen, 5 days ([4]; 50 mg/kg BID for 5 days) | also measured
1 | Cc1c(C(=O)Nc2ccc3c(c2)B(O)OC3)nnn1-c1ccccn1 [Compound 23, N-(1-Hydroxy-1,3-dihydrobenzo[c][1,2]oxaborol-6-yl)-5-methyl-1-(pyridin-2-yl)-1H-1,2,3-triazole-4-carboxamide] | 93.6% | 98.3% | 98.2% | 99.4% | 100% | 99.9% | 99.0% | 99.8% | 99.9% | 83.4% | 99.3% | 98.6% | EC50 ([1]; Table 2, geometric mean of at least three independent assays): 1400 nM; microsomal CLint at 1 μM [2]: < 11.9 µL/min/mg; reduction in parasite burden, bone marrow, 10 days ([4]; 25 mg/kg BID for 10 days): 99.6%; reduction in parasite burden, liver, 10 days ([4]; 25 mg/kg BID for 10 days): 99.9%; reduction in parasite burden, spleen, 10 days ([4]; 25 mg/kg BID for 10 days): 99.8%; fraction unbound at 6 h, 2 µM [5]: 0.08; fraction unbound at 6 h, 2 µM [6]: 0.08
2 | Cc1c(-c2ccccn2)coc1C(=O)Nc1ccc2c(c1)B(O)OC2 [Compound 28, N-(1-Hydroxy-1,3-dihydrobenzo[c][1,2]oxaborol-6-yl)-3-methyl-4-(pyridin-2-yl)furan-2-carboxamide] | 95.7% | 98.9% | 97.8% | 84% | 99.4% | 96.9% | 99.1% | 99.9% | 99.9% | 100% | 99.9% | 100% | EC50 ([1]; Table 6, geometric mean of at least two independent tests): 400 nM; microsomal CLint at 2 h, 1 µM [2]: 40 µL/min/mg; reduction in parasite burden, bone marrow, 5 days ([4]; 25 mg/kg BID for 5 days): 94.5%; reduction in parasite burden, liver, 5 days ([4]; 25 mg/kg BID for 5 days): 95.9%; reduction in parasite burden, spleen, 5 days ([4]; 25 mg/kg BID for 5 days): 95.9%
